We go through three compounds from ChEMBL document CHEMBL1157400, “Cytotoxic staurosporines from the marine ascidian Cystodytes solitus” (2008).

The structures appear in SMILES notation.

Type in all cases: functional
The subject of one assay is A549. As to the kind of experiment: Cytotoxicity against human A549 cells after 72 hrs by sulforhodamine B method. As to conditions: A549, 72 h. (Sulforhodamine B stains cellular protein and so reports cell mass.)
Another assay concerns MDA-MB-231. As to the kind of experiment: Cytotoxicity against human MDA-MB-231 cells after 72 hrs by sulforhodamine B method. As to conditions: MDA-MB-231, 72 h.
A further assay relates to HT-29. Kind of assay: Cytotoxicity against human HT29 cells after 72 hrs by sulforhodamine B method. As to conditions: HT-29, 72 h.

The term GI50 denotes the concentration that inhibits growth by half. As to `CN[C@@H]1C[C@H]2O[C@@](C)([C@@H]1OC)n1c3ccc(O)c(O)c3c3c4c(c5c6cc(O)ccc6n2c5c31)C(=O)NC4=O`, the GI50 turned out to be 26.6 nM with A549, 28.4 nM with MDA-MB-231 and 68.1 nM with HT-29.

Regarding `CN[C@@H]1C[C@H]2O[C@@](C)([C@@H]1OC)n1c3ccccc3c3c4c(c5c6ccccc6n2c5c31)C(=O)NC4` [STAUROSPORINE], the values for the GI50 with A549, in the assay on MDA-MB-231 and in the assay on HT-29 were 2.4 nM, 7.1 nM and 10.9 nM, respectively.

Regarding `CO[C@@H]1[C@H](N)C[C@H]2O[C@]1(C)n1c3ccc(O)c(O)c3c3c4c(c5c6ccccc6n2c5c31)C(=O)NC4=O`, the GI50 in the assay with A549 was determined as 17.5 nM; in the assay with MDA-MB-231, 32.1 nM; with HT-29, 90.3 nM.
